Molecules are shown by their SMILES.

By half-life is commonly meant the time needed for the level to fall by half in the phase considered. The Kd is the equilibrium constant for the complex coming apart. Read a low Kd as tighter binding. By AUC(0-inf) is commonly meant total exposure, with the tail of the curve extrapolated. Read a high AUC(0-inf) as more exposure. Broadly, the AUC(0-t) is exposure summed from dosing to a finite time, without extrapolation to infinity. Low readings indicate less exposure, high ones more exposure. By Cmax is commonly meant the maximum level reached in the sampled fluid or tissue. By MRT is commonly meant the average time that molecules of a dose stay in the body. Broadly, the Tmax is the time at which the peak concentration occurs. As a reminder, the IC50 is the point on the concentration scale where inhibition reaches its midpoint.

Data set [1] has as its system SDHB and NDUFA12 in MOLM13 cells. Description: Western blotting of respiratory chain proteins, MOLM13. It is filed as cell-based. To be noted: 36 h. Background: A western blot detects proteins with antibodies after separation by electrophoresis.
Data set [2] in a line: Liver microsomal stability, human. To be noted: human liver microsomes. It is filed as in vitro ADME. A general note: Liver microsomes are vesicles of endoplasmic reticulum, rich in cytochrome P450 enzymes.
Data set [3] deals with ClpP in HL60 cells (Homo sapiens, UniProt Q16740). Nature of the data set: Cellular thermal shift assay. In kind it is cell-based. To be noted: 10 μM, 6 h, vs control group.
Data set [4] has as its system SDHB and NDUFA12 in HL60 cells. Nature of the data set: Western blotting of respiratory chain proteins, HL60. Conditions: 36 h. It is filed as cell-based.
Data set [5] concerns MOLM13 cells. Description: Cell cycle analysis. It is filed as cell-based. To be noted: MOLM13, 24 h.
The test system of data set [6] is MOLM13 cells. Description: MOLM13-disseminated leukemia model, survival. It is filed as in vivo, NSG mice. To be noted: 10 mg/kg, p.o, qd, 18 days.
Data set [7] can be described thus: Liver microsomal stability, rat. In kind it is in vitro ADME. To be noted: rat liver microsomes.
Data set [8] addresses T1, ClpP (Homo sapiens, UniProt Q16740). Description: Biolayer interferometry. In kind it is binding. (In general: BLI is a label-free optical method that tracks binding on a fibre tip over time.)
Data set [9] addresses T1, ClpP. Description: In vitro enzyme assay: ClpP peptidase activity with AC-WLA-AMC. In kind it is biochemical. Conditions: for EC50: EC50 (ClpP proteolytic activity), mean ± SD, n = 3.
Data set [10] concerns MOLM13 cells. Nature of the data set: Mitochondrial ROS. In kind it is cell-based. To be noted: MOLM13, 38 h.
Data set [11] deals with HL60 cells. Nature of the data set: HL60-disseminated leukemia model, survival. In kind it is in vivo, NSG mice.
In data set [12] the test system is HL60 cells. Description: Mitochondrial ROS. In kind it is cell-based. Conditions: HL60, 5 nM, 38 h, vs DMSO group.
Data set [13] concerns MOLM13 cells. Description: Mitochondrial membrane potential. It is filed as cell-based. To be noted: MOLM13, 10 nM, 48 h, vs DMSO group.
The target in data set [14] is ClpP in MOLM13 cells (Homo sapiens, UniProt Q16740). Nature of the data set: Cellular thermal shift assay. In kind it is cell-based. Conditions: 10 μM, 6 h, vs control group.
Data set [15] concerns HL60 cells. Nature of the data set: Cell cycle analysis. In kind it is cell-based. Conditions: 24 h.
The subject of data set [16] is HL60 cells. Description: Mitochondrial membrane potential. It is filed as cell-based. To be noted: HL60, 10 nM, 48 h, vs DMSO group.
Data set [17] is described as follows: PK study, oral 50 mg/kg. In kind it is in vivo, ICR mice.
Data set [18] relates to HL60 cells. Description: Growth inhibition assay. It is filed as cell-based.
Data set [19] in a line: Liver microsomal stability, mice. In kind it is in vitro ADME.
The mark [20] stands for this setting: female, ICR, mouse, plasma, po, 50 mg/kg.

T1 sequence (Q16740 57-277): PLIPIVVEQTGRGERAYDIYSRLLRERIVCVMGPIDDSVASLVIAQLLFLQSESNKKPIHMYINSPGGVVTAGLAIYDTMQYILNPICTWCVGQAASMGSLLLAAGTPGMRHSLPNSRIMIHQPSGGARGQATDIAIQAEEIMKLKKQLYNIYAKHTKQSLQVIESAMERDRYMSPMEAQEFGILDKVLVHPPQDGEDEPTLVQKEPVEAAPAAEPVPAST
Chain of ClpP in HL60 cells (Q16740 57-277): as above
Chain of ClpP in MOLM13 cells (Q16740 57-277): as above

Turning to `C[C@@H]1CC2=C(CN1Cc1cccc(C#N)c1)C(=O)N(Cc1ccc(Br)cc1)C1=NCCN12` [CLPP-1071, (R)-3-((4-(4-Bromobenzyl)-8-methyl-5-oxo-1,2,4,5,8,9-hexahydroimidazo[1,2-a]pyrido[3,4-e]pyrimidin-7(6H)-yl)methyl)benzonitrile], the “SDHB and NDUFA12 protein levels” value in data set [1] (MOLM13, 1 nM) is listed as “decreased”; in [1] (MOLM13, 10 nM), “mostly disappeared”; in data set [4] (HL60, 1 nM) it was “decreased”; in data set [4] (HL60, 10 nM), “mostly disappeared”. The figures for the “Clapp” value in [2] and in [7] were 296 mL/min/kg and 906 mL/min/kg, respectively. Besides, the “Clh” value stood at 19.3 mL/min/kg in data set [2] and 52.0 mL/min/kg in data set [7]. The “Eh (%)” value in data set [2] was 93.5%; in [7], 94.3%. Moreover, the half-life in [2] was 13.7 min; in [7], 6.89 min; in [17] (setting [20]), 87 ± 19.8 min. The “thermal stability of ClpP (CETSA)” value in data set [3] and in data set [14] was “effectively stabilized ClpP protein at higher temperatures” throughout. For the same compound, the “percentage of cells arrested in G1” value in data set [5] (higher dose (dose not given)) worked out at 73%; in data set [5] (lower dose (dose not given)), 65%; in data set [15] (HL60, 10 nM) it was 50%; in [15] (HL60, 100 nM), 60%. Further, the “survival of female NSG mice” value was “extended the survival” in data set [6]; “dose-dependently extended the survival” in [11] (HL60 model, 5 and 10 mg/kg, p.o, qd, 19 days). Besides, binding in data set [8] was characterised by a dissociation constant (Kd) of 26.9 nM. The EC50 in data set [9] turned out to be 23.5 nM. Further, the “ClpP agonistic activity, fold stronger than ONC201” value in [9] (vs ONC201) amounted to 107.1 fold. Also, the ROS levels entry in [10] is on record as “significant increase in the ROS levels”. For the same compound, the “survival periods in mice” value in data set [11] (disseminated model, 5 mg/kg, stronger effects compared to 10 mg/kg ONC212) is “significantly prolonged survival periods”. For the same compound, the ROS accumulation entry in [12] is given as “pronounced elevation in ROS accumulation”. The “mitochondrial membrane potential (MMP)” value in data set [13] and in data set [16] was “significantly decreased MMP” each time. The “AUC0–∞, times higher than that of ONC212” value in data set [17] (PO 50 mg/kg, mice) was “approximately 1.5 times”. In addition, in data set [17] (setting [20]), the AUC(0-inf) turned out to be 9840 ± 990 ng·h/mL. The compound further gave an AUC(0-t) in data set [17] (setting [20]) of 9010 ± 1320 ng·h/mL. This compound also gave a Cmax in data set [17] (setting [20]) of 3420 ± 570 ng/mL. For the same compound, the MRT in [17] (setting [20]) was found to be 157 ± 24.6 min. Besides, the Tmax in [17] (setting [20]) is 30 ± 25.8 min. Besides, the IC50 in [18] (read-out: HL60 IC50, HL60 cells, 72 h, mean ± SD, n = 3, listed as 52a) is 4.61 ± 0.21 nM. The “inhibition of proliferation of HL60 cells, fold stronger than ONC201” value in [18] (vs ONC201) is recorded as 169.2 fold.

In the case of `CC(c1ccccc1)N1CCC2=C(C1)C(=O)N(Cc1ccc(C(F)(F)F)cc1)C1=NCCN12` (stereo not shown) [compound 2], the EC50 in data set [9] came to 193 ± 18.9 nM.

Take `CC(c1ccc(C(F)(F)F)cc1)N1C(=O)C2=C(CCN(Cc3ccccc3)C2)N2CCN=C21` (stereo not shown) [compound 3]: the EC50 in [9] turned out to be 2659 ± 11.7 nM.

For `CC1CN(Cc2ccccc2)CC2=C1N1CCN=C1N(Cc1ccc(C(F)(F)F)cc1)C2=O` (stereo not shown) [compound 4], the EC50 in data set [9] turned out to be 1410 ± 20.5 nM.

In turn, `CC1(C)CN(Cc2ccccc2)CC2=C1N1CCN=C1N(Cc1ccc(C(F)(F)F)cc1)C2=O` [compound 5] displayed an EC50 in data set [9] of 1650 ± 84.5 nM.

As for `C[C@]12CC[C@H]3[C@@H](CCC4=CC(=O)CC[C@@]43C)[C@@H]1CC[C@@H]2O` [testosterone, reference compound], in data set [2], the “Clapp” value is reported as 467 mL/min/kg, the “Clh” value is reported as 19.8 mL/min/kg and the “Eh (%)” value was found to be 95.8%. In addition, in data set [7], the “Clapp” value worked out at 8634 mL/min/kg, the “Clh” value is on record as 54.8 mL/min/kg, the “Eh (%)” value amounted to 99.4% and the half-life was 0.723 min. In data set [19] (mice liver microsomes), the “Clapp” value amounted to 8634 mL/min/kg, the “Clh” value is given as 54.8 mL/min/kg and the “Eh (%)” value came to 99.4%. Also, in [19] (mouse, liver microsomes), the half-life stood at 0.723 min.

Values taken from paper PMC11647907 (Journal of Medicinal Chemistry, 2024).
